# Data published in article PMC12884720, “Gabpα‐Pparγ Complex Determines Glycolytic Capacity and Lactic Acid Homeostasis in Brown Fat” (Advanced Science, 2025).
# Residues, ends and D or L forms follow the SMILES beside them. *: point of attachment. FITC = O=C1OC2(c3ccc(O)cc3Oc3cc(O)ccc32)c2ccc(NC(=S)*)cc21
# What was measured:
# Format in all cases: in vivo, wild‐type C57BL/6J mice
# [1] = test system: wild‐type mice; assay: BAT mass, body weight, tissue mass and morphology of mice after BAT injection of peptide; conditions: GPCBi 5.5 mg kg^−1 orthotopically into BAT
# Experimental: (§1) The mouse experiments were approved by the Institutional Animal Care and Use Committee of the Institute of Model Animals of Tongji Hospital, Huazhong University of Science and Technology, and were performed in compliance with all relevant ethical regulations (approval number: TJH‐202110044). Unless otherwise noted, the mice were housed in a pathogen‐free and climate‐controlled environment (22–25 °C, 40‐60% humidity) and were given free access to food and water on a 12 h light/dark cycle. Wild‐type C57BL/6J mice were obtained from Beijing Huafukang Bioscience Co., Ltd. (Beijing, China). Gabpa ^flox/flox , Adipoq^Cre , and Ucp1^Cre mice were purchased from Cyagen Biosciences, Inc. (Guangzhou, China). For GPCBi treatment, wild‐type mice were orthotopically injected GPCBi (FITC‐[…]; 5.5 mg kg^−1) or scramble peptide (FITC‐[…]; 5.5 mg kg^−1) into the BAT at room temperature for one week. […] For cold exposure, the mice were caged individually and exposed to a temperature of 10 or 4 °C. The mice were euthanized by CO2 inhalation. For studies with specific diets, five‐week‐old male Gabpα ^Adipo KI mice and their respective littermate control mice were fed a HFD (D12492, Research Diets; 60 kcal% fat, 20 kcal% carbohydrates, and 20 kcal% protein; Medicience Ltd., Jiangsu, China) at ambient temperature. The food was changed every week. Body weight was measured every week, and tissue weights were measured at the time of euthanasia.
# [2] = test system: wild‐type mice; assay: Fasting blood glucose; conditions: GPCBi 5.5 mg kg^−1 orthotopically into BAT; n = 5 (Figure S4h)
# Experimental: as §1, with “For studies with specific diets, five‐week‐old male Gabpα ^Adipo KI mice and their respective littermate control mice were fed a HFD (D12492, Research Diets; 60 kcal% fat, 20 kcal% carbohydrates, and 20 kcal% protein; Medicience Ltd., Jiangsu, China) at ambient temperature. The food was changed every week.” left out
# [3] = test system: wild‐type mice; assay: Oxygen consumption and heat production (CLAMS); conditions: GPCBi‐injected mice, room temperature, n = 4 (Figure 4n,o; Figure S4i,j)
# Experimental: The mouse experiments were approved by the Institutional Animal Care and Use Committee of the Institute of Model Animals of Tongji Hospital, Huazhong University of Science and Technology, and were performed in compliance with all relevant ethical regulations (approval number: TJH‐202110044). Unless otherwise noted, the mice were housed in a pathogen‐free and climate‐controlled environment (22–25 °C, 40‐60% humidity) and were given free access to food and water on a 12 h light/dark cycle. Wild‐type C57BL/6J mice were obtained from Beijing Huafukang Bioscience Co., Ltd. (Beijing, China). Gabpa ^flox/flox , Adipoq^Cre , and Ucp1^Cre mice were purchased from Cyagen Biosciences, Inc. (Guangzhou, China). For GPCBi treatment, wild‐type mice were orthotopically injected GPCBi (FITC‐[…]; 5.5 mg kg^−1) or scramble peptide (FITC‐[…]; 5.5 mg kg^−1) into the BAT at room temperature for one week. […] Body weight was measured every week, and tissue weights were measured at the time of euthanasia.
# Three‐month‐old mice (Gabpα ^Ucp1 KO, Gabpα ^Adipo KI, peptide GPCBi, and respective littermate control mice) were subjected to whole‐body energy expenditure measurements in metabolic chambers. Oxygen consumption and heat production were monitored via a Comprehensive Laboratory Animal Monitoring System (CLAMS, Columbus Instruments) at specific temperatures. […]
structure (smiles),measurement,setting,value
CC[C@H](C)[C@H](NC(=O)[C@H](CCCNC(=N)N)NC(=O)[C@H](CS)NC(=O)[C@H](CC(N)=O)NC(=O)[C@H](CC(C)C)NC(=O)[C@H](CC(=O)O)NC(=O)[C@H](CS)NC(=O)[C@H](CCCNC(=N)N)NC(=O)[C@H](CC(=O)O)NC(=O)[C@H](Cc1ccc(O)cc1)NC(=O)[C@@H](NC(=O)[C@H](CC(C)C)NC(=O)[C@H](CCCCN)NC(=O)[C@H](CC(C)C)NC(=O)[C@H](CCCNC(=N)N)NC(=O)[C@@H](NC(=O)[C@@H](NC(=O)[C@H](CCCNC(=N)N)NC(=O)[C@H](CCCNC(=N)N)NC(=O)[C@H](CCCNC(=N)N)NC(=O)[C@H](CCCNC(=N)N)NC(=O)[C@H](CCCNC(=N)N)NC(=O)[C@H](CCC(N)=O)NC(=O)[C@H](CCCNC(=N)N)NC(=O)[C@H](CCCNC(=N)N)NC(=O)[C@H](CCCCN)NC(=O)[C@H](CCCCN)NC(=O)[C@H](CCCNC(=N)N)NC(=O)CNC(=O)[C@H](Cc1ccc(O)cc1)NC(=S)Nc1ccc2c(c1)C(=O)OC21c2ccc(O)cc2Oc2cc(O)ccc21)[C@@H](C)O)[C@@H](C)CC)[C@@H](C)CC)C(=O)N[C@@H](Cc1c[nH]cn1)C(=O)N[C@@H](CCCCN)C(=O)N[C@@H](CCCCN)C(=O)N[C@@H](CO)C(=O)N[C@@H](CCCNC(=N)N)C(=O)N[C@@H](CC(N)=O)C(=O)N[C@@H](CCCCN)C(=O)O [GPCBi] ({FITC}-YGRKKRRQRRRRRTIRLKLIYDRCDLNCRIHKKSRNK-OH; N-terminus and C-terminus assumed),BAT morphology,[1]; one week (Figure S4f),morphological changes
same,"body weight or the morphology or tissue mass of IngWAT, EpiWAT, or the liver","[1]; one week, n = 4 (Figure S4e-g)",no significant changes
same,BAT mass,"[1]; room temperature, one week, versus scramble peptide, n = 4 (Figure S4g)",reduced BAT mass
same,fasting blood glucose levels,[2],markedly increased
same,oxygen consumption and heat production,[3],significant decreases
